Patent US20020001582A1, “Methods and compositions for inhibiting microbial growth” (priority 1999, published 2002)

What was measured:
Assay type in all cases: cell-based
[1] = system: Sclerotinia homoeocarpa; assay: Inhibition of Sclerotinia homoeocarpa in potato dextrose broth (area of growth); details: 2 weeks after the inoculation
Protocol: Potato dextrose broth was prepared. Fifty ml of the PD broth was added into 100 ml dilution bottles, autoclaved and cooled to room temperature. Various amounts of lysozyme, chitosan, polylysine and avidin were weighed into the bottles. Ten ml of the PD broth with or without the antimicrobials was transferred into sterile petri dishes. A plug of Sclerotinia homoeocarpa (about 6-10 mm square) grown on PD agar was placed into the center of each petri dish. These treatments were all done in triplicates. Fungal growth was monitored by measuring the area of the growth.

[2] = system: Pythium sylvaticom (IM195); assay: Inhibition of Pythium by lysozyme in PD broth, % plate coverage
Protocol: (§1) Potato dextrose broth was prepared, poured into glass dilution bottles (100 ml each), autoclaved and allowed to cool. […] A fungal square (plug) of each culture was cut and placed in/near the center of each plate. Fungal growth was quantified by measuring the diameter of growth of each fungus while it was growing on the liquid media in each petri dish using a ruler. Each treatment was done in triplicate.
(§2) The experiment was repeated three times (three batches). The observation period for each batch was 2 weeks.
(§3) The fungal growth was expressed in % coverage of the petri dishes by the fungal patches. The calculation can be presented in the following equation:
(§4) Fungal growth (%)=(area of fungal patch/total plate area)×100

[3] = system: Pythium torrulesum (IM193); assay: as above; details: for fungal coverage of the plates: end of 2 weeks
Protocol: as §1, §2, §3, §4

lysozyme: type c egg white lysozyme, enzyme of approximately 129 amino acids; commercially available from Canadian Inovatech, Inc.
reduction of fungal growth ([1]; 1000 ppm): 35%
reduction of fungal growth ([1]; 2000 ppm): about 55%
fungal growth (% plate coverage) ([2]; 50 ppm): 86%
fungal growth (% plate coverage) ([2]; 100 ppm): 51%
fungal growth compared with 100, 50 or 0 ppm (Tukey test) ([2]; 250, 500 or 1000 ppm, p<0.05): significantly lower
fungal growth (% plate coverage) ([2]; 250 ppm): 15%
fungal growth (% plate coverage) ([2]; 500 ppm): 7%
fungal growth (% plate coverage) ([2]; 1000 ppm): 6%
fungal coverage of the plates ([3]; 50 ppm): 80%
fungal coverage of the plates ([3]; 100 ppm): 80%
fungal growth compared with 100, 50 or 0 ppm (Tukey test) ([3]; 250, 500 or 1000 ppm, p<0.05): significantly lower
fungal coverage of the plates ([3]; 250 ppm): 51%
fungal coverage of the plates ([3]; 500 ppm): 25%
fungal coverage of the plates ([3]; 1000 ppm): 14%
